Measured values: ChEMBL document CHEMBL1142647, “Potent pyrimidinetrione-based inhibitors of MMP-13 with enhanced selectivity over MMP-14” (Bioorg Med Chem Lett, 2005)

Target: Collagenase 3 (Homo sapiens, UniProt P45452)
Test: Inhibitory concentration against matrix metalloprotease 13

Question: How did the IC50 turn out when CC1(Oc2ccc(Cl)cc2)C(=O)NC(=O)NC1=O was run?
Answer: 390 nM

Question: How did the IC50 turn out when CCCCC1(Oc2ccc(Oc3ccc(F)cc3)cc2)C(=O)NC(=O)NC1=O was run?
Answer: 2 nM
